US12501919B2, “Method for increasing anthocyanin content in carrots” (UNIVERSITY OF COPENHAGEN, priority 2016, dated 2025)
Entries after “also recorded” stand apart in the source; their conditions may differ.

Experiments:
[1] = test system: black carrot (Deep Purple F1) roots; test: Field trial, foliar spray on black carrot, small plots harvested 21 weeks after sowing; assay type: in vivo, Daucus carota ssp. sativus var. atrorubens Alef.; conditions: for increase of mean anthocyanin concentration of treated plants compared with respective controls: 21 weeks after sowing, foliar spray, 6 applications; for accumulation of anthocyanin in roots: field-applied, measured twenty-one weeks after sowing (FIG. 1, FIG. 2)
Procedure: (§1) The experiment consisted on a factorial combination of […] (Deep Purple F1) and three sowing dates: 19 May 2014, and 18 and 25 May 2015, in field trials in Taastrup, Denmark, at the experimental station in Højbakkegård (latitude 55, longitude […]). Seeds were provided by Chr. Hansen A/S. Plants were cultivated on loamy soil. Air temperatures during the growing period were slightly different in both years of cultivation (mean values of 2 years: 15.4 and 14.6° C., May-October). Rainfall was complemented by irrigation throughout carrot growth to avoid water stress. The routine techniques of cultivation and plant protection, recommended for carrot crop production were applied.
(§2) Plots were arranged in a randomized block design with three replications. In the three sowing dates, each plot consisted of three 4.5 m-long rows. Additionally, plots of three 12 m-long rows were arranged in 18 May 2015. 2-Chloroethylphosphonic acid solution (CERONE® brand ETHEPHON, 39.9% Bayer CropScience, Leverkusen, Germany) was applied as a foliar spray avoiding the rainy days, at rates of 0, 120 and 360 g·ha^−1 a.i. in 2014; 0, 360, and 720 g·ha^−1 a.i. in 2015 for small plots; and 0 and 360 g·ha^−1 a.i. for large plots. Applications were made using a CO2 backpack spaced 50 cm apart, beginning 6 weeks after planting and continuing every 3 weeks, for a total of 6 applications.
Small plots (4.5 m-long rows) were harvested 21 weeks after sowing. The roots were manually harvested from the middle part of each row.
In all analyses, 20 whole carrot roots per plot were washed and split lengthwise: 20 halves were ground in liquid nitrogen, and the generated powder was stored at −80° C. for further gene expression analyses; the complementary 20 halves were coarsely ground in a commercial blender, and 50 g of the resulting purée were immediately homogenized in 50 g of a 3% sulfuric acid solution (v/v), by using a Waring two-speed commercial blender (VWR—Bie & Berntsen, Herlev, Denmark). The resulting fine purée (4 g) was subsequently mixed with demineralized water (8 g) and vortexed. After incubation for 1 h at room temperature, the sample was centrifuged 20 min at 4500 rpm, and the supernatant (extract) was utilized for further analyses.
Soluble solids were calculated with a digital refractometer with automatic temperature compensation and operating range from 0 to 53° Brix. For its calculation, the carrot extract obtained was filtered through 0.45 μm membrane filters, and Brix measurements were performed using 1 mL of the filtrate. For each measurement, two technical replicates were made and their average was reported.
Dry matter was determined by the mass difference between the fresh sample and the dry sample. The sample was dried 24 h until it reached a constant weight using an oven at 90° C. The results were expressed as percentage of dry matter. For each measurement, two technical replicates were made and their average was reported.
(§3) TMC was measured spectrophotometrically based on the pH differential method, with slight modifications. The carrot extract was diluted by adding 20 volumes of 0.2 M KCl-HCl pH 1, and TMC was measured at […] and 700 nm (to correct for sediment) using a UV-Vis spectrophotometer (Evolution™ 220, Thermo Fischer Scientific, Waltham, MA, USA). The TMC was expressed as cyaniding-3-glucoside equivalents (ppm).
All analyses were performed with three technical and three biological replicates. Data were subjected to statistical analysis using SPSS software (version 22, SPSS Inc., Chicago, IL, USA). Treatments were compared using one-way analysis of variance (ANOVA) followed by a Tukey post hoc test. p<0.05 was considered significant.

[2] = test system: black carrot (Deep Purple) roots; test: Field trial, foliar spray on black carrot, large plots with successive harvests 7 to 35 weeks after planting; assay type: in vivo, Daucus carota ssp. sativus var. atrorubens Alef.
Procedure: as §1, §2
Large plots (12 m-long rows) were harvested several times from separate row segments, during the growing period from 30 Jun. 2015 to 19 Jan. 2016 (7, 10, 13, 16, 19, 22, 25, 26, 29 and 35 weeks after planting). Carrot production was estimated in large plots 21 weeks after planting: two meters per row was dug from each plot, and the carrots were washed and weighed. Measured weights were extrapolated to tons per hectare. […]
Soluble solids were calculated with a digital refractometer with automatic temperature compensation and operating range from 0 to 53° Brix. […]
Dry matter was determined by the mass difference between the fresh sample and the dry sample. […] The results were expressed as percentage of dry matter. […]
as §3, with “(ppm). […]” for “(ppm).”

[3] = treated plants versus controls (FIG. 1)

For `O=P(O)(O)CCCl` [2-Chloroethylphosphonic acid], the “effect of total amount applied on the accumulation of anthocyanin” value ([1]; 120, 360 and 720 g ha^-1 a.i. treatments compared, either growing season) was “no differences were found; also recorded: nonsignificant effect”, the “increase of mean anthocyanin concentration of treated plants compared with respective controls” value ([1]; Harvest 1 (first of three repetitions of two growing seasons)) was 49% and the “increase of mean anthocyanin concentration of treated plants compared with respective controls” value ([1]; Harvest 2 (second of three repetitions)) was 38%. The “increase of mean anthocyanin concentration of treated plants compared with respective controls” value ([1]; Harvest 3 (third of three repetitions)) was 65%, the root weight ([1]; either growing season (FIG. 1)) was “did not affect” and the “accumulation of anthocyanin in roots” value [1] was “induced the accumulation of anthocyanin”. For the same compound, the “accumulation of anthocyanin in roots” value ([1]; listed as ethylene-releasing compound) was “increased amounts of anthocyanin; also recorded: induced the accumulation of anthocyanin”, the “increase of mean anthocyanin concentration in the roots of treated plants compared with respective controls (summary)” value ([1]; pre-harvest foliar spraying on black carrot leaves, over all repetitions) was “more than 35%” and the “dry weight (DW)” value [1, 3] was “lowest values”. For the same compound, the “soluble sugar content (SSC)” value [1, 3] was “lowest values”, the “root colour in cross and longitudinal sections” value ([1]; treated roots versus untreated roots with white core (FIG. 2)) was “solid purple colour” and the “TMC after the last application” value ([2]; 7 weeks after the application of the last treatment (22 to 27 weeks after planting) (FIG. 3A)) was “continued to increase”. The “root length, treated versus untreated carrots” value ([2]; at each harvest time (FIG. 4)) was “differed insignificantly”, the “root weight, treated versus untreated carrots” value ([2]; at each harvest time (FIG. 4)) was “differed insignificantly” and the “mean anthocyanin concentration (TMC) of treated roots versus untreated” value ([2]; at every harvest point, 7 to 35 weeks after planting, 360 g ha^-1 a.i.) was “higher”.
